Here are results for two compounds from article PMC11653257, “Organometallic Half-Sandwich Complexes of 8-Hydroxyquinoline-Derived Mannich Bases with Enhanced Solubility: Targeting Multidrug Resistant Cancer” (Inorganic Chemistry, 2024).

One assay relates to A431. The arrangement: method as in earlier work. The following applies: monoculture, 72 h, PrestoBlue; ref SI3; cited from earlier work.
In the next assay the test system is Colo320. Briefly: Cytotoxicity, Colo320. The assay is classed as cell-based, human. The following applies: this work. The text has this: Supplementary Information
(11 pictures or pasted objects on this page, not shown here)

The next assay relates to MES-SA. Briefly: Cytotoxicity in triple coculture, MES-SA mCherry. The assay is classed as cell-based, human. The following applies: MES-SA/B1, MES-SA/Dx5, 144 h. On the procedure:
Cell lines were purchased from the American Type Culture Collection (ATCC). MES-SA/B1 is a human MDR1-transfected derivative of MES-SA, and MES-SA mCherry, MES-SA/B1 mOrange, and MES-SA/Dx5 eGFP were engineered to stably express the respective fluorescent proteins previously.[62] Cells were kept in culture medium (DMEM) supplemented with 10% fetal bovine serum, 2 mM L-glutamine, 100 units/mL penicillin, and 100 μg/mL streptomycin (Thermo Fisher). One week before use, MES-SA/Dx5 eGFP cells were treated with 0.5 μM doxorubicin to ensure ABCB1/P-gp expression.
The tested compounds were dissolved in 50% (v/v) DMSO/PBS’ buffer to prepare 5–10 mM stock solutions, which were diluted in complete culture medium. Constitutive expression of the fluorescent proteins allowed multiplexing in cytotoxicity experiments.[62] Cells were mixed before seeding in 384-well plates: in double cocultures, MES-SA mCherry and MES-SA/Dx5 eGFP cells were seeded at 1250–1250 cells/well (in total 2500 cells/well); while in triple cocultures, MES-SA mCherry, MES-SA/Dx5 eGFP and MES-SA/B1 mOrange cells were seeded at 800–800–800 cells/well (in total 2400 cells/well). Serial dilutions of the compounds were added 24 h after seeding. To address the effect of P-gp function, TQ was added at a nontoxic concentration (0.4 μM) 15 min before the test compounds. The intensity of the fluorescent proteins, which is proportional to cell mass, was measured after 144 h of incubation at the respective fluorescent channels (excitation/emission: eGFP: 485 nm/510 nm; mOrange: 545 nm/567 nm; mCherry: 585 nm/610 nm). pIC50 values were calculated by a custom program written by Judit Sessler in C#.[62] IC50 values and standard deviation were calculated from average pIC50 values from at least 3 independent measurements.

For `Oc1c(CN2CCCCC2)cc(Cl)c2cccnc12` [HQCl-pip, 5-chloro-7-(piperidin-1-ylmethyl)quinolin-8-ol], the IC50 (usually the point on the concentration scale where inhibition reaches its midpoint) in the assay with A431 was 6.67 ± 1.69 µM. Moreover, in the assay with Colo320, the “SR (Colo205 / Colo320)” value amounted to 2.4. Turning to [RhCp*(HQCl-Pip)Cl]Cl [(3)], the IC50 in the assay on MES-SA amounted to 2.11 µM.
